Assays:
Test in all cases: relative viability (nuclei count vs DMSO), 5 days (fraction); higher = more cells survive
[1] = compound: O=C1NC(=O)[C@@H](c2cn3c4c(cccc24)CCC3)[C@@H]1c1c[nH]c2ccccc12 [Tivantinib] + Cc1cc(Nc2cc(N3CCN(C)CC3)nc(Sc3ccc(NC(=O)C4CC4)cc3)n2)n[nH]1 [Tozasertib] (partner 0.1 µM)
Procedure, shortened: (§1)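 Dosing by pin tool came one day after lung cancer cell lines were seeded in 1536-well plates, using either one drug or a fixed anchor-drug dose plus five library-drug doses (not always all listed) in √10 steps. After 5 days, nuclei were counted on 4× images. Relative viability is treated-well nuclei count divided by vehicle-well nuclei count, and values are medians of duplicate plates.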

[2] = compound: O=C1NC(=O)[C@@H](c2cn3c4c(cccc24)CCC3)[C@@H]1c1c[nH]c2ccccc12 [Tivantinib] + O=C(c1cc(Cc2n[nH]c(=O)c3ccccc23)ccc1F)N1CCN(C(=O)C2CC2)CC1 [Olaparib] (partner 8 µM)
Procedure, shortened: as §1

[3] = compound: O=C1NC(=O)[C@@H](c2cn3c4c(cccc24)CCC3)[C@@H]1c1c[nH]c2ccccc12 [Tivantinib] + Cc1nc(NC(=O)N2CCC[C@H]2C(N)=O)sc1-c1ccnc(C(C)(C)C(F)(F)F)c1 [Alpelisib] (partner 2 µM)
Procedure, shortened: as §1

[4] = compound: CC1(COc2ccc3c(c2)ncn3-c2ccc3cccc(N4CCC(N)CC4)c3n2)COC1 [Crenolanib] + CS(=O)(=O)CCNCc1ccc(-c2ccc3ncnc(Nc4ccc(OCc5cccc(F)c5)c(Cl)c4)c3c2)o1 [Lapatinib] (partner 2 µM)
Procedure, shortened: as §1

| Cell Line | relative viability ([1]; first compound 0.01 µM) | relative viability ([1]; first compound 0.03162 µM) | relative viability ([1]; first compound 0.1 µM) | relative viability ([1]; first compound 0.3162 µM) | relative viability ([2]; first compound 0.01 µM) | relative viability ([2]; first compound 0.03162 µM) | relative viability ([2]; first compound 0.1 µM) | relative viability ([2]; first compound 0.3162 µM) | relative viability ([3]; first compound 0.01 µM) | relative viability ([3]; first compound 0.03162 µM) | relative viability ([3]; first compound 0.1 µM) | relative viability ([3]; first compound 0.3162 µM) | relative viability ([4]; first compound 0.01 µM) | relative viability ([4]; first compound 0.03162 µM) | relative viability ([4]; first compound 0.1 µM) | relative viability ([4]; first compound 0.3162 µM) | relative viability ([4]; first compound 1 µM) |
| --- | --- | --- | --- | --- | --- | --- | --- | --- | --- | --- | --- | --- | --- | --- | --- | --- | --- |
| NCI-H1975 | 0.773 | 0.744 | 0.645 | 0.714 | 0.799 | 0.77 | 0.72 | 0.734 | 0.645 | 0.676 | 0.602 | 0.5 | 0.844 | 0.968 | 0.774 | 0.891 | 0.702 |
| NCI-H1993 | 0.541 | 0.595 | 0.543 | 0.51 | 1.22 | 1.04 | 1.05 | 0.589 | 0.682 | 0.707 | 0.644 | 0.669 | 0.805 | 0.759 | 0.856 | 0.787 | 0.784 |
| NCI-H2009 | 0.734 | 0.696 | 0.755 | 0.651 | 0.714 | 0.674 | 0.746 | 0.643 | 1.15 | 1.21 | 1.12 | 1.14 | 1.07 | 0.889 | 0.899 | 0.913 | 0.906 |
| NCI-H2023 | 0.337 | 0.325 | 0.268 | 0.308 | 0.52 | 0.452 | 0.479 | 0.402 | 0.549 | 0.642 | 0.5 | 0.492 | 1.04 | 0.898 | 0.844 | 0.889 | 0.47 |
| NCI-H2085 | 0.764 | 0.798 | 0.755 | 0.749 | 0.825 | 0.817 | 0.718 | 0.778 | 1.03 | 0.934 | 1.01 | 0.837 | 0.65 | 0.81 | 0.731 | 0.745 | 0.799 |
| NCI-H2087 | 0.311 | 0.257 | 0.235 | 0.3 | 0.56 | 0.628 | 0.602 | 0.658 | 1 | 1.06 | 1.02 | 0.956 | 1.14 | 1 | 0.985 | 1.18 | 1.09 |
| NCI-H2126 | 0.91 | 0.785 | 0.831 | 0.538 | 0.94 | 0.933 | 0.881 | 0.813 | 0.745 | 0.739 | 0.749 | 0.684 | 0.796 | 0.742 | 0.745 | 0.775 | 0.71 |
| NCI-H2170 | 0.771 | 0.619 | 0.749 |  | 0.558 | 0.658 | 0.507 |  | 0.806 | 0.852 | 0.674 |  | 0.272 | 0.283 | 0.281 | 0.276 | 0.247 |
| NCI-H2228 |  | 0.356 | 0.221 | 0.214 | 0.43 | 0.815 | 0.678 | 0.587 | 0.842 | 0.644 | 0.618 | 0.695 | 0.964 | 0.876 | 0.969 | 1.27 | 1.28 |
| NCI-H2347 | 0.71 | 0.6 | 0.53 | 0.624 | 0.556 | 0.593 | 0.583 | 0.552 | 1.16 | 0.959 | 1.06 | 1.01 | 0.981 | 0.903 | 0.663 | 1.05 | 0.873 |
| NCI-H2405 | 0.759 | 0.782 | 0.756 | 0.707 | 1.02 | 0.895 | 0.868 | 0.867 | 1.12 | 0.751 | 0.777 | 0.483 | 1.02 | 1.13 | 0.85 | 0.998 | 0.948 |
| NCI-H3122 | 0.409 | 0.36 | 0.508 | 0.146 | 0.643 | 0.608 | 0.584 | 0.665 | 0.731 | 0.849 | 0.803 | 0.807 | 1.02 | 0.976 | 1.01 | 1.09 | 1.21 |
| PC-3 [JPC-3] | 0.877 | 0.902 | 0.945 | 0.705 | 1.09 | 1.12 | 1.11 | 0.662 | 0.993 | 1.06 | 1.05 | 0.775 | 0.452 | 0.45 | 0.511 | 0.449 | 0.452 |
| PC-14 | 0.635 | 0.558 | 0.594 | 0.379 | 0.238 | 0.305 | 0.228 | 0.26 | 0.874 | 0.927 | 0.945 | 0.892 | 0.311 | 0.294 | 0.335 | 0.335 | 0.324 |
| RERF-LC-KJ | 0.539 | 0.532 | 0.473 | 0.403 | 0.894 | 0.892 | 0.917 | 0.799 | 0.839 | 0.854 | 0.81 | 0.6 | 0.917 | 0.886 | 0.903 | 0.872 | 0.812 |
| SK-LU-1 | 0.331 | 0.357 | 0.312 | 0.323 | 0.595 | 0.464 | 0.433 | 0.512 | 1.04 | 1.17 | 0.995 | 1.16 | 0.911 | 0.917 | 0.694 | 0.921 | 0.958 |
| SK-MES-1 | 0.903 | 0.904 | 0.824 | 0.862 | 0.751 | 0.659 |  | 0.874 | 0.912 | 0.867 | 0.929 | 0.444 | 0.449 | 0.504 | 0.422 | 0.467 | 0.458 |
| SW 1573 | 0.23 | 0.262 | 0.177 | 0.127 | 0.532 | 0.481 | 0.544 | 0.488 | 0.941 | 0.738 | 0.741 | 0.716 | 1.01 | 1.06 | 1.3 | 1.18 | 1.1 |
